According to ChEMBL document CHEMBL4265967, “Design, synthesis, and evaluation of carboxyl-modified oseltamivir derivatives with improved lipophilicity as neuraminidase inhibitors” (Bioorg Med Chem Lett, 2018):

Assays:
[1] = biological target: Neuraminidase (Influenza A virus) (UniProt B4URF0); conditions: A/Anhui/2005(H5N1), at 10 µM
Neuraminidase = Neuraminidase (Influenza A virus, UniProt B4URF0); set-up: species or system A/Anhui/2005(H5N1)
[2] = biological target: Neuraminidase (Influenza A virus) (UniProt B4URF0); conditions: A/Anhui/2005(H5N1), at 1 µM
in vitro [3] = conditions: human, liver microsomes
in vitro [4] = conditions: human, liver microsomes; remark: listed apart in the source
in vitro [5] = conditions: human, liver microsomes; remark: listed apart in the source
in vitro [6] = conditions: human, liver microsomes; remark: listed apart in the source
in vitro [7] = conditions: human, liver microsomes; remark: listed apart in the source
in vitro [8] = conditions: human, liver microsomes; remark: listed apart in the source
in vitro [9] = conditions: human, liver microsomes; remark: listed apart in the source
in vitro [10] = conditions: human, liver microsomes; remark: listed apart in the source
[11] = Octanol-phosphate buffered saline partition coefficient, log D of compound at pH 6.8 at 1 mg after 24 hrs by HPLC analysis; type: physicochemical
[12] = Octanol-phosphate buffered saline partition coefficient, log D of compound at pH 7 at 1 mg after 24 hrs by HPLC analysis; type: physicochemical
[13] = Octanol-phosphate buffered saline partition coefficient, log D of compound at pH 7.6 at 1 mg after 24 hrs by HPLC analysis; type: physicochemical
[14] = Octanol-phosphate buffered saline partition coefficient, log D of compound at pH 7.4 at 1 mg after 24 hrs by HPLC analysis; type: physicochemical

Chain of Neuraminidase (B4URF0 whole entry): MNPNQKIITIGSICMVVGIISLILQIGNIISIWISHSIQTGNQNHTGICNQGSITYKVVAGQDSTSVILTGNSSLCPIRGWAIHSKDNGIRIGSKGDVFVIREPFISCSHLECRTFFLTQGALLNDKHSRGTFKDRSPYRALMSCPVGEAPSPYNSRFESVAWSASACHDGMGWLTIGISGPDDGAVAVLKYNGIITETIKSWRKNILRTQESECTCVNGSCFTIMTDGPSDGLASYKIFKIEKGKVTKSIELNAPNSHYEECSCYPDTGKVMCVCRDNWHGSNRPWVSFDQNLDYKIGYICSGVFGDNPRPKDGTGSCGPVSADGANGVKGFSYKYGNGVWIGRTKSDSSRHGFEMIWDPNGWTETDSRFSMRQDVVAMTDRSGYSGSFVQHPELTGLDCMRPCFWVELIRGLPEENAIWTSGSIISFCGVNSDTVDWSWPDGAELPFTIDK
Chain of Neuraminidase (Influenza A virus) (B4URF0 as listed by the source): as the sequence (B4URF0 whole entry) above

CCC(CC)O[C@@H]1C=C(C(=O)N[C@@H](C(=O)O)C2CC2)C[C@H](N)[C@H]1NC(C)=O
inhibition [1]: 85.7%
IC50 (Neuraminidase): 46.4 µM

CCC(CC)O[C@@H]1C=C(C(=O)N[C@H](CC(C)C)C(=O)OC)C[C@H](N)[C@H]1NC(C)=O
inhibition [1]: 41.7%
inhibition [2]: 13.1%

CCC(C)C[C@@H](NC(=O)C1=C[C@@H](OC(CC)CC)[C@H](NC(C)=O)[C@@H](N)C1)C(=O)OC (some centres not stated)
inhibition [1]: 50.5%
inhibition [2]: 23.6%

CCC(CC)O[C@@H]1C=C(C(=O)NCc2ccc(Cl)c(Cl)c2)C[C@H](N)[C@H]1NC(C)=O
inhibition [1]: 21.4%

CCCC[C@@H](NC(=O)C1=C[C@@H](OC(CC)CC)[C@H](NC(C)=O)[C@@H](N)C1)C(=O)O
inhibition [1]: 85.5%
IC50 (Neuraminidase): 30.7 µM

CCC(CC)O[C@@H]1C=C(C(=O)N[C@H](Cc2ccccc2)C(=O)O)C[C@H](N)[C@H]1NC(C)=O
inhibition [1]: 80.4%
inhibition [2]: 21.1%
IC50 (Neuraminidase): 21.9 µM

C[C@]12CC[C@H]3[C@@H](CCC4=CC(=O)CC[C@@]43C)[C@@H]1CC[C@@H]2O [TESTOSTERONE]
remaining at 1 h, 1 µM (in vitro [3]): 99.3%
remaining at 1 h, 1 µM (in vitro [4]): 5.2%
remaining at 0.5 h, 1 µM (in vitro [5]): 21.5%
remaining at 10 min, 1 µM (in vitro [6]): 58.9%
remaining at 20 min, 1 µM (in vitro [7]): 37.8%
remaining at 5 min, 1 µM (in vitro [8]): 64.8%

CCC(CC)O[C@@H]1C=C(C(=O)N[C@@H](CC(=O)OC)c2ccccc2)C[C@H](N)[C@H]1NC(C)=O
inhibition [1]: 56.7%
inhibition [2]: 26.5%

CCC(CC)O[C@@H]1C=C(C(=O)N[C@@H](C(=O)O)c2ccccc2)C[C@H](N)[C@H]1NC(C)=O
inhibition [1]: 8.3%

CCC(CC)O[C@@H]1C=C(C(=O)N[C@H](CC(C)C)C(=O)O)C[C@H](N)[C@H]1NC(C)=O
inhibition [1]: 84.4%
inhibition [2]: 38.9%
IC50 (Neuraminidase): 6.55 µM

CCC(CC)O[C@@H]1C=C(C(=O)NCCCc2ccccc2)C[C@H](N)[C@H]1NC(C)=O
inhibition [1]: 19.3%
inhibition [2]: 13.5%

CCC(CC)O[C@@H]1C=C(C(=O)NCCCCc2ccccc2)C[C@H](N)[C@H]1NC(C)=O
inhibition [1]: 29.6%
inhibition [2]: 24.7%

CCC(CC)O[C@@H]1C=C(C(=O)NC2CC2)C[C@H](N)[C@H]1NC(C)=O
inhibition [1]: 55.3%
inhibition [2]: 5%

O=C(O)Cc1ccccc1Nc1c(Cl)cccc1Cl [DICLOFENAC]
CLint scaled at 1 µM (in vitro [9]): 108 mL/min/kg
microsomal CLint at 1 µM (in vitro [9]): 120 µL/min/mg
half-life at 1 µM (in vitro [10]): 11.6 min

CCC(CC)O[C@@H]1C=C(C(=O)N[C@H](Cc2ccccc2)C(=O)OC)C[C@H](N)[C@H]1NC(C)=O
inhibition [1]: 63.2%
inhibition [2]: 24.9%

CCC(CC)O[C@@H]1C=C(C(=O)N[C@@H](C(=O)O)C(C)C)C[C@H](N)[C@H]1NC(C)=O
inhibition [1]: 91.4%
inhibition [2]: 57.6%
IC50 (Neuraminidase): 4.18 µM

CCC(CC)O[C@@H]1C=C(C(=O)N[C@@H](C(=O)O)C(C)(C)C)C[C@H](N)[C@H]1NC(C)=O
remaining at 1 h, 1 µM (in vitro [3]): 92.9%
remaining at 1 h, 1 µM (in vitro [4]): 84.1%
logD at 24 h [11]: -0.0458
CLint scaled at 1 µM (in vitro [9]): < 8.6 mL/min/kg
microsomal CLint at 1 µM (in vitro [9]): < 9.6 µL/min/mg
remaining at 0.5 h, 1 µM (in vitro [5]): 95.5%
logD at 24 h [12]: -0.167
logD at 24 h [13]: -0.209
inhibition [1]: 91%
logD at 24 h [14]: -0.116
half-life at 1 µM (in vitro [10]): > 145 min
inhibition [2]: 58.3%
IC50 (Neuraminidase): 1.3 µM
remaining at 10 min, 1 µM (in vitro [6]): 87.3%
remaining at 20 min, 1 µM (in vitro [7]): 106%
remaining at 5 min, 1 µM (in vitro [8]): 111%

CCC(CC)O[C@@H]1C=C(C(=O)N[C@H](C)C(=O)O)C[C@H](N)[C@H]1NC(C)=O
inhibition [1]: 81.1%
inhibition [2]: 27.8%
IC50 (Neuraminidase): 24.4 µM
